Assay results reported in the supplement of paper PMC13207355.
Counter-ions that a name gives are not always drawn.

Legend:
Conditions in all cases: exposure time: 72 h
E57 [1] = patient-derived glioblastoma stem cells of mesenchymal subtype; experiment: phenotypic distance (Euclidean, principal components) from DMSO controls (arbitrary units); higher = stronger morphological change
E31 [2] = patient-derived glioblastoma stem cells of proneural subtype; experiment: as above
E34 [3] = patient-derived glioblastoma stem cells of proneural subtype; experiment: as above
E13 [4] = patient-derived glioblastoma stem cells of classical subtype; experiment: as above
E21 [5] = patient-derived glioblastoma stem cells of mesenchymal subtype; experiment: as above
FT3469 [6] = normal neural stem cell line; experiment: as above
E28 [7] = patient-derived glioblastoma stem cells of classical subtype; experiment: as above
E57 [8] = experiment: surviving fraction (nuclei count normalised to DMSO); higher = more cells surviving (less toxic)
E31 [9] = experiment: as above
E34 [10] = experiment: as above
E13 [11] = experiment: as above
E21 [12] = experiment: as above
FT3469 [13] = experiment: as above
E28 [14] = experiment: as above
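For phenotypic distance (Euclidean, principal components) from DMSO controls in this document: cell Painting imaging in 384-well plates, CellProfiler features reduced to at least 20 principal components, Euclidean distance versus same-plate DMSO vehicle wells (0.1% v/v), median over six images per well.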
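For surviving fraction (nuclei count normalised to DMSO) in this document: nuclei counted by high-content imaging of Hoechst-stained cells in laminin-coated 384-well plates, relative to 0.1% DMSO vehicle wells, with staurosporine as cell-death control.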

CSc1ccc2c(c1)N(CCC1CCCCN1C)c1ccccc1S2 (stereo unspecified) [Thioridazine hydrochloride]
Conditions	phenotypic distance	surviving fraction
E13 [4], 4.1 nM	0.45	–
E13 [4], 12.3 nM	0.608	–
E13 [4], 37 nM	0.775	–
E13 [4], 111.1 nM	3.1	–
E13 [4], 333.3 nM	0.477	–
E13 [4], 1000 nM	0.686	–
E13 [4], 3000 nM	1.2	–
E13 [11], 4.1 nM	–	0.922
E13 [11], 12.3 nM	–	0.886
E13 [11], 37 nM	–	0.934
E13 [11], 111.1 nM	–	0.929
E13 [11], 333.3 nM	–	0.939
E13 [11], 1000 nM	–	0.93
E13 [11], 3000 nM	–	0.861
E21 [5], 4.1 nM	1.5	–
E21 [5], 12.3 nM	0.757	–
E21 [5], 37 nM	0.366	–
E21 [5], 111.1 nM	0.452	–
E21 [5], 333.3 nM	0.631	–
E21 [5], 1000 nM	0.422	–
E21 [5], 3000 nM	0.911	–
E21 [12], 4.1 nM	–	0.936
E21 [12], 12.3 nM	–	0.936
E21 [12], 37 nM	–	0.946
E21 [12], 111.1 nM	–	1
E21 [12], 333.3 nM	–	0.935
E21 [12], 1000 nM	–	0.952
E21 [12], 3000 nM	–	1.02
E28 [7], 4.1 nM	1.44	–
E28 [7], 12.3 nM	0.64	–
E28 [7], 37 nM	0.64	–
E28 [7], 111.1 nM	0.832	–
E28 [7], 333.3 nM	0.524	–
E28 [7], 1000 nM	0.717	–
E28 [7], 3000 nM	0.589	–
E28 [14], 4.1 nM	–	1.06
E28 [14], 12.3 nM	–	1.05
E28 [14], 37 nM	–	1.01
E28 [14], 111.1 nM	–	1.06
E28 [14], 333.3 nM	–	1.14
E28 [14], 1000 nM	–	0.893
E28 [14], 3000 nM	–	1.05
E31 [2], 4.1 nM	1.05	–
E31 [2], 12.3 nM	0.458	–
E31 [2], 37 nM	0.506	–
E31 [2], 111.1 nM	0.946	–
E31 [2], 333.3 nM	0.547	–
E31 [2], 1000 nM	0.532	–
E31 [2], 3000 nM	1.19	–
E31 [9], 4.1 nM	–	0.911
E31 [9], 12.3 nM	–	0.899
E31 [9], 37 nM	–	1.03
E31 [9], 111.1 nM	–	0.762
E31 [9], 333.3 nM	–	1.01
E31 [9], 1000 nM	–	0.88
E31 [9], 3000 nM	–	0.874
E34 [3], 4.1 nM	1.83	–
E34 [3], 12.3 nM	0.749	–
E34 [3], 37 nM	0.609	–
E34 [3], 111.1 nM	0.331	–
E34 [3], 333.3 nM	0.663	–
E34 [3], 1000 nM	0.609	–
E34 [3], 3000 nM	0.89	–
E34 [10], 4.1 nM	–	0.994
E34 [10], 12.3 nM	–	0.901
E34 [10], 37 nM	–	0.957
E34 [10], 111.1 nM	–	0.923
E34 [10], 333.3 nM	–	0.896
E34 [10], 1000 nM	–	0.974
E34 [10], 3000 nM	–	0.91
E57 [1], 4.1 nM	1.05	–
E57 [1], 12.3 nM	0.805	–
E57 [1], 37 nM	0.596	–
E57 [1], 111.1 nM	0.728	–
E57 [1], 333.3 nM	0.352	–
E57 [1], 1000 nM	0.966	–
E57 [1], 3000 nM	0.872	–
E57 [8], 4.1 nM	–	0.993
E57 [8], 12.3 nM	–	0.914
E57 [8], 37 nM	–	0.948
E57 [8], 111.1 nM	–	0.926
E57 [8], 333.3 nM	–	0.952
E57 [8], 1000 nM	–	0.889
E57 [8], 3000 nM	–	1.2
FT3469 [6], 4.1 nM	1.76	–
FT3469 [6], 12.3 nM	1.1	–
FT3469 [6], 37 nM	0.901	–
FT3469 [6], 111.1 nM	0.672	–
FT3469 [6], 333.3 nM	1.85	–
FT3469 [6], 1000 nM	0.516	–
FT3469 [6], 3000 nM	0.354	–
FT3469 [13], 4.1 nM	–	1.11
FT3469 [13], 12.3 nM	–	0.948
FT3469 [13], 37 nM	–	1.02
FT3469 [13], 111.1 nM	–	0.934
FT3469 [13], 333.3 nM	–	1
FT3469 [13], 1000 nM	–	1.06
FT3469 [13], 3000 nM	–	0.997

COc1ccc(/C=C\c2cc(OC)c(OC)c(OC)c2)cc1OP(=O)(O)O [Fosbretabulin Disodium]
Conditions	phenotypic distance	surviving fraction
E13 [4], 4.1 nM	1.22	–
E13 [4], 12.3 nM	2.08	–
E13 [4], 37 nM	5.08	–
E13 [4], 111.1 nM	4.95	–
E13 [4], 333.3 nM	5.64	–
E13 [4], 1000 nM	8.31	–
E13 [4], 3000 nM	7.96	–
E13 [11], 4.1 nM	–	0.8
E13 [11], 12.3 nM	–	0.905
E13 [11], 37 nM	–	0.361
E13 [11], 111.1 nM	–	0.241
E13 [11], 333.3 nM	–	0.171
E13 [11], 1000 nM	–	0.175
E13 [11], 3000 nM	–	0.0977
E21 [5], 4.1 nM	0.897	–
E21 [5], 12.3 nM	0.887	–
E21 [5], 37 nM	1.98	–
E21 [5], 111.1 nM	5.67	–
E21 [5], 333.3 nM	6.69	–
E21 [5], 1000 nM	8.1	–
E21 [5], 3000 nM	6.31	–
E21 [12], 4.1 nM	–	0.889
E21 [12], 12.3 nM	–	0.951
E21 [12], 37 nM	–	0.847
E21 [12], 111.1 nM	–	0.415
E21 [12], 333.3 nM	–	0.176
E21 [12], 1000 nM	–	0.101
E21 [12], 3000 nM	–	0.0981
E28 [7], 4.1 nM	0.427	–
E28 [7], 12.3 nM	0.345	–
E28 [7], 37 nM	0.559	–
E28 [7], 111.1 nM	0.674	–
E28 [7], 333.3 nM	1.52	–
E28 [7], 1000 nM	3.18	–
E28 [7], 3000 nM	3.86	–
E28 [14], 4.1 nM	–	1.09
E28 [14], 12.3 nM	–	1
E28 [14], 37 nM	–	0.905
E28 [14], 111.1 nM	–	0.938
E28 [14], 333.3 nM	–	0.894
E28 [14], 1000 nM	–	0.41
E28 [14], 3000 nM	–	0.293
E31 [2], 4.1 nM	0.483	–
E31 [2], 12.3 nM	0.846	–
E31 [2], 37 nM	0.502	–
E31 [2], 111.1 nM	0.681	–
E31 [2], 333.3 nM	1.6	–
E31 [2], 1000 nM	4.42	–
E31 [2], 3000 nM	7.65	–
E31 [9], 4.1 nM	–	0.927
E31 [9], 12.3 nM	–	1.01
E31 [9], 37 nM	–	0.765
E31 [9], 111.1 nM	–	0.917
E31 [9], 333.3 nM	–	0.54
E31 [9], 1000 nM	–	0.123
E31 [9], 3000 nM	–	0.0441
E34 [3], 4.1 nM	0.709	–
E34 [3], 12.3 nM	0.552	–
E34 [3], 37 nM	0.5	–
E34 [3], 111.1 nM	0.935	–
E34 [3], 333.3 nM	1.29	–
E34 [3], 1000 nM	3.14	–
E34 [3], 3000 nM	7.56	–
E34 [10], 4.1 nM	–	0.966
E34 [10], 12.3 nM	–	0.962
E34 [10], 37 nM	–	1.06
E34 [10], 111.1 nM	–	0.942
E34 [10], 333.3 nM	–	0.86
E34 [10], 1000 nM	–	0.521
E34 [10], 3000 nM	–	0.348
E57 [1], 4.1 nM	0.784	–
E57 [1], 12.3 nM	0.887	–
E57 [1], 37 nM	0.575	–
E57 [1], 111.1 nM	1.01	–
E57 [1], 333.3 nM	2.68	–
E57 [1], 1000 nM	5.08	–
E57 [1], 3000 nM	5.09	–
E57 [8], 4.1 nM	–	0.953
E57 [8], 12.3 nM	–	0.934
E57 [8], 37 nM	–	0.943
E57 [8], 111.1 nM	–	0.986
E57 [8], 333.3 nM	–	0.604
E57 [8], 1000 nM	–	0.077
E57 [8], 3000 nM	–	0.0927
FT3469 [6], 4.1 nM	0.525	–
FT3469 [6], 12.3 nM	0.86	–
FT3469 [6], 37 nM	0.542	–
FT3469 [6], 111.1 nM	0.517	–
FT3469 [6], 333.3 nM	1.3	–
FT3469 [6], 1000 nM	2.97	–
FT3469 [6], 3000 nM	3.41	–
FT3469 [13], 4.1 nM	–	0.907
FT3469 [13], 12.3 nM	–	1.03
FT3469 [13], 37 nM	–	1.03
FT3469 [13], 111.1 nM	–	0.976
FT3469 [13], 333.3 nM	–	0.745
FT3469 [13], 1000 nM	–	0.503
FT3469 [13], 3000 nM	–	0.346
